US7341985B2, “2-Hydroxy-3-alkoxypropyl sulfides, sulfones, and sulfoxides: new surface active agents” (Air Products and Chemicals, Inc., priority 2004, dated 2008)

Experiments:
Type in all cases: physicochemical
[1] = Equilibrium surface tension (Kruss K-12 tensiometer, Wilhelmy plate); details: 25±1° C., average of 10 measurements over 10 minutes
Description: Equilibrium surface tensions were determined for the compounds prepared in Examples 1-6, using a Kruss K-12 tensiometer with a platinum Wilhelmy plate, maintaining the temperature at 25±1° C. by means of a constant temperature circulating bath. The results, reported in Table 2, are averages of 10 measurements over a 10-minute period, and have a standard deviation of less than 0.01 dyne/cm.

Water solubility = assay: Water solubility
[2] = Ross-Miles foam test (foam height and stability); details: 0.1 wt % solution
Description: Foam height and stability (time to reach zero foam) were measured by the Ross-Miles foam test, using 0.1 wt % solutions of the surfactants.

[3] = Dynamic surface tension (Kruss BP-2 Bubble Pressure Tensiometer); details: for Dynamic surface tension reduction of an aqueous solution (in words): summary of Table 4
Description: Dynamic surface tensions were determined for the compounds prepared in Examples 1-5, at 0.1 and 1.0 wt % levels, using a Kruss BP-2 Bubble Pressure Tensiometer.

[4] = 0.1 wt %, 1 b/s (bubbles/second)

Equilibrium Surface Tension ([1]; 0.1 wt % in water) [dynes/cm]	Equilibrium Surface Tension ([1]; 1.0 wt % in water) [dynes/cm]	Water Solubility (Water solubility) [wt %]	Initial Foam Height [2] [cm]	Time to 0 foam [2] [s]	Final Foam Height at 300 Sec [2] [cm]	Dynamic surface tension [3, 4] [dynes/cm]	Dynamic surface tension ([3]; 0.1 wt %, 5 b/s) [dynes/cm]	Dynamic surface tension ([3]; 0.1 wt %, 20 b/s) [dynes/cm]	Dynamic surface tension ([3]; 1.0 wt %, 1 b/s) [dynes/cm]	Dynamic surface tension ([3]; 1.0 wt %, 5 b/s) [dynes/cm]	Dynamic surface tension ([3]; 1.0 wt %, 20 b/s) [dynes/cm]	Dynamic surface tension reduction of an aqueous solution (in words) [3]	Compound
30.7	29.3	<0.1	0.6	6	0	35	39	45	30	30	32	strong	CCCCC(CC)COCC(O)CSCCO (stereo not drawn) [MEEHGE, 2-hydroxyethyl-2′-hydroxy-3′-(2-ethylhexyloxy)propyl sulfide]
28.3	26.7	<0.1	1.0	6	0	37	47	53	27	28	30	strong	CCCCC(CC)COCC(O)CSCC(O)CO (stereo not drawn) [TGEHGE, 2,3-dihydroxypropyl-2′-hydroxy-3′-(2-ethylhexyloxy)propyl sulfide]

Compound	Equilibrium Surface Tension ([1]; 0.1 wt % in water) [dynes/cm]	Equilibrium Surface Tension ([1]; 1.0 wt % in water) [dynes/cm]	Water Solubility (Water solubility) [wt %]	Initial Foam Height [2] [cm]	Time to 0 foam [2] [s]	Final Foam Height at 300 Sec [2] [cm]	Dynamic surface tension [3, 4] [dynes/cm]	Dynamic surface tension ([3]; 0.1 wt %, 5 b/s) [dynes/cm]	Dynamic surface tension ([3]; 0.1 wt %, 20 b/s) [dynes/cm]	Dynamic surface tension ([3]; 1.0 wt %, 1 b/s) [dynes/cm]	Dynamic surface tension ([3]; 1.0 wt %, 5 b/s) [dynes/cm]	Dynamic surface tension ([3]; 1.0 wt %, 20 b/s) [dynes/cm]	Dynamic surface tension reduction of an aqueous solution (in words) [3]
CCCCOCC(O)CSCCO (stereo not drawn) [MEBGE, 2-hydroxyethyl-2′-hydroxy-3′-butoxypropyl sulfide]	37.1	32.6	<0.1	1.2	2	0	59	61	65	43	44	44	moderate
